Laboratory results taken from patent EP2212334B1, “PROTEASOME INHIBITORS” (Millennium Pharmaceuticals, Inc., priority 2007, dated 2009).

Molecular target: T1, rat spleen 20S immunoproteasome (Rattus norvegicus, UniProt P28064+P28077)
T1 construct: rat spleen 20S immunoproteasome (Boston Biochem, 0.25 nM final); purchased Boston Biochem; host or cells: rat spleen (tissue-derived 20S immunoproteasome)
Assay: Rat 20S (PA28 activation) β1i and β5i Proteasome Assays (result stated for one or both)
Format: biochemical
Conditions: human PA28 activator, Ac-PAL-AMC (β1i) or Ac-ANW-AMC (β5i) substrate, not stated which of the two assays
Description: Rat 20S (PA28 activation) β1i Proteasome Assay
(§1) To 1 µL of test compound dissolved in DMSO in a 384-well black microtiter plate is added 25 µL of assay buffer at 37 °C containing human PA28 activator (Boston Biochem, 12 nM final) with Ac-PAL-AMC (•1i selective substrate) (40 µM final), followed by 25 µL of assay buffer at 37 °C containing rat spleen 20S immunoproteasome (Boston Biochem, 0.25 nM final). Assay buffer is composed of 20 mM HEPES, 0.5 mM EDTA and 0.01% BSA, pH7.4. The reaction is followed on a BMG Galaxy plate reader (37 °C, excitation 380 nm, emission 460 nm, gain 20). Percent inhibition is calculated relative to 0% inhibition (DMSO) and 100% inhibition (10 µM bortezomib) controls.
Rat 20S (PA28 activation) β5i Proteasome Assay
as §1, with “Ac-ANW-AMC •5i” for “Ac-PAL-AMC (•1i”, “substrate (30” for “substrate) (40”, “final)” for “final),”, “(37°C,” for “(37 °C,”

| SMILES | IC50 [nM] |
| --- | --- |
| CC(C)C[C@H](NC(=O)C(C)(C)NC(=O)c1cnc2ccccc2n1)B(O)O [Compound 21, [(1R)-3-methyl-1-({2-methyl-2-[(quinoxalin-2-ylcarbonyl)amino]propanoyl}-amino)butyl]boronic acid] | ≤ 1000 |
| CC(C)C[C@H](NC(=O)C1(NC(=O)OCc2ccccc2)CCC1)B(O)O [Compound 18, ((1R)-1-{[(1-{[(benzyloxy)carbonyl]amino}cyclobutyl)carbonyl]amino}-3-methylbutyl)boronic acid] | ≤ 1000 |
| Cc1ccc(C[C@H](NC(=O)C2(NC(=O)c3cnccn3)CC2)B(O)O)cc1 [Compound 19, {(1R)-2-(4-methylphenyl)-1-[({1-[(pyrazin-2-ylcarbonyl)amino]cyclopropyl}-carbonyl)amino]ethyl}boronic acid] | ≤ 10000 |
| CC(C)C[C@H](NC(=O)C1(NC(=O)Cc2ccccc2)CC1)B(O)O [Compound 22, {(1R)-3-methyl-1-[({1-[(phenylacetyl)amino]cyclopropyl}carbonyl)amino]-butyl}boronic acid] | ≤ 1000 |
| Cc1cccc(C[C@H](NC(=O)C2(NC(=O)c3ccc(Cl)cc3)CC2)B(O)O)c1 [Compound 2, [(1R)-1-[((1-[(4-chlorobenzoyl)amino]cyclopropyl)carbonyl)amino]-2-(3-methylphenyl)ethyl]boronic acid] | ≤ 10000 |
| CC(C)C[C@H](NC(=O)[C@]1(NC(=O)c2cnccn2)C[C@H]1c1ccccc1)B(O)O [Compound 3, {(1R)-3-methyl-1-[(((1S,2S)-2-phenyl-1-[(pyrazin-2-ylcarbonyl)amino]-cyclopropyl}carbonyl)amino]butyl)boronic acid] | ≤ 1000 |
| CC(C)C[C@H](NC(=O)C(C)(C)NC(=O)c1cnccn1)B(O)O [Compound 28, [(1R)-3-methyl-1-({2-methyl-2-[(pyrazin-2-ylcarbonyl)amino]propanoyl}-amino)butyl]boronic acid] | ≤ 1000 |
| CC(C)C[C@H](NC(=O)C1(NC(=O)c2ccccc2C(F)(F)F)CC1)B(O)O [Compound 30, ((1R)-3-methyl-1-{[(1-{[2-(trifluoromethyl)benzoyl]amino}cyclopropyl)-carbonyl]amino)butyl)boronic acid] | ≤ 1000 |
| CC(C)C[C@H](NC(=O)C(C)(C)NC(=O)OCc1ccccc1)B(O)O [Compound 32, ((1R)-1-[(2-([(benzyloxy)carbonyl]amino)-2-methylpropanoyl)amino]-3-methylbutyl)boronic acid] | ≤ 1000 |
| CC(C)C[C@H](NC(=O)C(C)(C)NC(=O)c1ccc(Cl)cc1)B(O)O [Compound 25, [(1R)-1-({2-[(4-chlorobenzoyl)amino]-2-methylpropanoyl]amino)-3-methylbutyl]boronic acid] | ≤ 1000 |
